Experimental data published in patent US10513519B2, “Solid forms of (1S,4S)-4-(2-(((3S,4R)-3-fluorotetrahydro-2H-pyran-4-yl)amino)-8-((2,4,6-trichlorophenyl)amino)-9H-purin-9-yl)-1-methylcyclohexane-1-carboxamide and methods of their use” (Signal Pharmaceuticals, LLC, priority 2016, dated 2019).

Tested on: 64 cancer cell lines
Test: Anti-proliferative activity across a panel of 64 cancer cell lines (CellTiter-Glo)
Assay type: cell-based
Description: Prior to testing, cells were grown and expanded in culture flasks to provide sufficient amounts of starting material. Cells were then diluted to the appropriate densities and added directly to the compound-spotted 384-well plates. Cells were allowed to grow for 72 h at 37° C./5% CO2. At the time when compound was added (to), initial cell number was assessed via a viability assay (Cell Titer-Glo) by quantifying the level of luminescence generated by ATP present in viable cells. After 72 h, cell viability of compound-treated cells was assessed via Cell Titer-Glo and luminescence measurement. The apoptotic response to Compound 1 was assessed by quantifying the activities of caspase 3 and caspase 7 (Caspase 3/7-Glo) in treated cells and DMSO control cells.
Cells were treated with DMSO or increasing concentrations of Compound 1 for 72 h. Proliferation was measured using CellTiter-Glo as described.

[1] = HUH-6-clone5, 72 h, HuH-6-Clone5 (Liver)
[2] = HepG2/C3A, 72 h, HepG2/C3A (Liver)
[3] = Homo sapiens, A549, 72 h, A549 (Lung)
[4] = Homo sapiens, A-375, 72 h, A375 (Melanoma)
[5] = Homo sapiens, BXPC-3, 72 h, BxPC-3 (Pancreas)
[6] = Homo sapiens, CFPAC-1, 72 h, CFPAC-1 (Pancreas)
[7] = Homo sapiens, COLO 205, 72 h, Colo 205 (Colon)
[8] = Homo sapiens, HCT-116, 72 h, HCT-116 (Colon)
[9] = Homo sapiens, HOP-62, 72 h, HOP62 (Lung)
[10] = Homo sapiens, HOP-92, 72 h, HOP92 (Lung)
[11] = Homo sapiens, HT-29, 72 h, HT29 (Colon)
[12] = Homo sapiens, HT-29, 72 h, HT29/219 (Colon)
[13] = Homo sapiens, Hep3B, 72 h, Hep3B (Liver)
[14] = Homo sapiens, HepG2, 72 h, HepG2 (Liver)
[15] = Homo sapiens, HuCCT-1, 72 h, HuCCT1 (Liver)
[16] = Homo sapiens, HuH-1, 72 h, HuH-1 (Liver)
[17] = Homo sapiens, Huh-7, 72 h, HuH-7 (Liver)
[18] = Homo sapiens, K562, 72 h, K-562 (Leukemia)
[19] = Homo sapiens, KATO III, 72 h, KATOIII, Stomach
[20] = Homo sapiens, LOX IMVI, 72 h, LOX-IMVI (Melanoma)
[21] = Homo sapiens, LoVo, 72 h, LOVO (Colon)
[22] = Homo sapiens, MDA-MB-231, 72 h, MDA-MB-231 (Breast)
[23] = Homo sapiens, Malme-3M, 72 h, MALME-3M (Melanoma)

## C[C@]1(C(N)=O)CC[C@@H](n2c(Nc3c(Cl)cc(Cl)cc3Cl)nc3cnc(N[C@@H]4CCOC[C@H]4F)nc32)CC1 [Compound 1, cis-4-[2-{[(3S,4R)-3-fluorooxan-4-yl]amino}-8-(2,4,6-trichloroanilino)-9H-purin-9-yl]-1-methylcyclohexane-1-carboxamide]
72 h, 92-1 (Melanoma)
  GI50: 0.0102 µM
  IC50: 0.0316 µM
72 h, AGS, Stomach
  GI50: 0.023 µM
  IC50: 0.028 µM
72 h, FOCUS (Liver)
  GI50: 1.5 µM
  IC50: 4.3 µM
72 h, HLE (Liver)
  GI50: 4.85 µM
  IC50: 9.62 µM
72 h, HLF (Liver)
  GI50: 6.68 µM
  IC50: 7.39 µM
72 h, JHH-5 (Liver)
  GI50: 0.0045 µM
  IC50: 0.007 µM
72 h, JHH-6 (Liver)
  GI50: 10 µM
  IC50: 10 µM
72 h, PC-9 (Lung)
  GI50: 0.217 µM
  IC50: 0.379 µM
72 h, CRC, melanoma, gastric cancer, HCC, lung cancer, pancreatic cancer, leukemia, multiple myeloma
  proliferation of multiple cancer cell lines: inhibit the proliferation
[1]
  GI50: 0.0291 µM
  IC50: 1.22 µM
[2]
  GI50: 4.62 µM
  IC50: 10 µM
[3]
  GI50: 0.0402 µM
  IC50: 0.0822 µM
[4]
  GI50: 0.021 µM
  IC50: 0.024 µM
[5]
  GI50: 0.0368 µM
  IC50: 0.0708 µM
[6]
  GI50: 1.95 µM
  IC50: 7.4 µM
[7]
  GI50: 0.025 µM
  IC50: 0.04 µM
[8]
  GI50: 0.017 µM
  IC50: 0.022 µM
[9]
  GI50: 0.339 µM
  IC50: 3.49 µM
[10]
  GI50: 0.108 µM
  IC50: 0.117 µM
[11]
  GI50: 0.016 µM
  IC50: 0.025 µM
[12]
  GI50: 0.0017 µM
  IC50: 0.0045 µM
[13]
  GI50: 0.0053 µM
  IC50: 0.0147 µM
[14]
  GI50: 0.0346 µM
  IC50: 1.24 µM
[15]
  GI50: 0.0253 µM
  IC50: 1.3 µM
[16]
  GI50: 0.235 µM
  IC50: 7.26 µM
[17]
  GI50: 0.0212 µM
  IC50: 0.489 µM
[18]
  GI50: 5.42 µM
  IC50: 6.03 µM
[19]
  GI50: 7.05 µM
  IC50: 8.02 µM
[20]
  GI50: 0.022 µM
  IC50: 0.025 µM
[21]
  GI50: 0.063 µM
  IC50: 0.126 µM
[22]
  GI50: 0.0353 µM
  IC50: 3.33 µM
Homo sapiens, MIA PaCa-2, 72 h, MiaPaCa-2 (Pancreas)
  GI50: 0.047 µM
[23]
  GI50: 0.0011 µM
  IC50: 0.0038 µM
